Measurements: ChEMBL document CHEMBL1201862, “PubChem BioAssay data set” (2004)
Calls of active or inactive are those of the source.

Tests used:
[1] = target: DNA dC->dU-editing enzyme APOBEC-3G (Homo sapiens, UniProt Q9HC16); experiment: Dose Response confirmation of small molecule APOBEC3G DNA Deaminase Inhibitors via a fluorescence-based single-stranded DNA deaminase assay. [Related pubchem assays (depositor defined):AID493012, AID493028]; format: functional
[2] = Shn3 3'UTR reporter inhibitors, dose response, cell-based, Clone20 osteoblasts, firefly luciferase, cherry-picked (AID 624132); format: functional;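 note: firefly luciferase luminescence from reporter carrying the Shn3 3'UTR in osteoblasts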
[3] = HepG2 cell cytotoxicity, dose response, cytotoxicity control for Shn3 inhibitor project, CellTiter-Glo, cherry-picked (AID 624134); format: functional, cell-based
[4] = control 3'UTR Renilla luciferase suppression, dose response, counter-screen for Shn3 inhibitor project, cell-based, Clone20-Shn3RL, cherry-picked (AID 624133); format: functional
[5] = inhibitors of HIV Env-driven cell fusion, dose response, cherry-pick (AID 652057); format: functional, cell-based
[6] = ZM109 Env clade C HIV-1 fusion inhibitors, dose response, HeLa effector, CEM target cells, luciferase, cherry-pick (AID 652058); format: functional, cell-based
[7] = inhibitors of clade B AD8 Env fusion, dose response, cell-based, cherry-pick (AID 652062); format: functional;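 note: luciferase signal from cell-cell fusion driven by HIV-1 clade B AD8 Env; potency is for inhibitors of fusion seen as a drop in luminescence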
[8] = target: Glyceraldehyde-3-phosphate dehydrogenase (Homo sapiens, UniProt P04406)
Glyceraldehyde-3-phosphate dehydrogenase, sequence (P04406 whole entry): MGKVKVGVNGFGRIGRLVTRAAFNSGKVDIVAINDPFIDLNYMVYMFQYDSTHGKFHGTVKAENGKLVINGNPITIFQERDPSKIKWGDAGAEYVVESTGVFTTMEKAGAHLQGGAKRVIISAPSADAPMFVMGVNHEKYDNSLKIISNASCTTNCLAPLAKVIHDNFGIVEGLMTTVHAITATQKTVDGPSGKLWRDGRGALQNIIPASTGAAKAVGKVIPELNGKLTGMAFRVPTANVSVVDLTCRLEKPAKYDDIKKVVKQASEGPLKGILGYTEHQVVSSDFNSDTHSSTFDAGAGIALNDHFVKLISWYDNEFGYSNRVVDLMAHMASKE

[9] = target: T1, Alkaline phosphatase, tissue-nonspecific isozyme (Homo sapiens, UniProt P05186); experiment: human TNAP enzyme inhibitors, SAR follow-up, biochemical, luminescent, dose response (AID 1056)
T1 sequence (P05186 whole entry): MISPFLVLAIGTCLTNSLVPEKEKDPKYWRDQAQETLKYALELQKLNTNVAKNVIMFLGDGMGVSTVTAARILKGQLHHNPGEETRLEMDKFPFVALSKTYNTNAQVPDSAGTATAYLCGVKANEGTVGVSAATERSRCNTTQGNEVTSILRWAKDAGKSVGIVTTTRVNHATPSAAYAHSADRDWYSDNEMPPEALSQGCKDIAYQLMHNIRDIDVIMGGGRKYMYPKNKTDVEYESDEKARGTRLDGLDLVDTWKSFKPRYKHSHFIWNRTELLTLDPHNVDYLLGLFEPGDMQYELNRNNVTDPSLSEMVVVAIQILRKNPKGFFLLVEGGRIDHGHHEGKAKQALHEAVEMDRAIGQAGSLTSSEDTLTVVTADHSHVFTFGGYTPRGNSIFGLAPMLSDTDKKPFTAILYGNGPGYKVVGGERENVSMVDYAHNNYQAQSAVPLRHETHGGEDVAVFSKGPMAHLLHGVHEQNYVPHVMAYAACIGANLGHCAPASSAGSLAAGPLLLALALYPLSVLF

[10] = target: T2, Corticotropin-releasing factor receptor 2/Corticotropin-releasing factor-binding protein (Homo sapiens, UniProt P24387+Q13324); experiment: Dose Response confirmation of uHTS hits for small molecule antagonists of the CRF-binding protein and CRF-R2 receptor complex.; format: functional; conditions: read-out: IC50_Mean
T2 sequence (Q13324 whole entry): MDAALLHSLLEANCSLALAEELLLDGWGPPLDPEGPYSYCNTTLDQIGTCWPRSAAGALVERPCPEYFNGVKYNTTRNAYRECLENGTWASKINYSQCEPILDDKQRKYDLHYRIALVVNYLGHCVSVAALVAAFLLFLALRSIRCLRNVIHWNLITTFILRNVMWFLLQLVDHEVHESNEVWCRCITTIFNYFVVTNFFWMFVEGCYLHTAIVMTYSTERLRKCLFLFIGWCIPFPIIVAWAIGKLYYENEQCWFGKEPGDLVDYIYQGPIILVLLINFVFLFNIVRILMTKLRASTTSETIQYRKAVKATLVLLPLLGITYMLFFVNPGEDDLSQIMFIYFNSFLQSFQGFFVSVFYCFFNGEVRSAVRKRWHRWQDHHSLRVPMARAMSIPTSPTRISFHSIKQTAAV
T2 sequence (P24387 whole entry): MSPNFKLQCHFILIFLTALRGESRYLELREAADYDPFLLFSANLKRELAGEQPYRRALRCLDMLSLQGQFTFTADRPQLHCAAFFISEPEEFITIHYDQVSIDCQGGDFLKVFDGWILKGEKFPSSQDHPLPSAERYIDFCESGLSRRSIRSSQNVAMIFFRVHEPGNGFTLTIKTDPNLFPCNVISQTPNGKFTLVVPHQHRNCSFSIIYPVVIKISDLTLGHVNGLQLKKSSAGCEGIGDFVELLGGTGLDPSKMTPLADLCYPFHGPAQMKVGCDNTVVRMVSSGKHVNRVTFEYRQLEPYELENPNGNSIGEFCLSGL

[11] = target: T2, Corticotropin-releasing factor receptor 2/Corticotropin-releasing factor-binding protein; experiment: activators of CRF receptor 2 with binding protein – uHTS hits, confirmation (AID 602473); format: functional; conditions: read-out: EC50_Mean
[12] = CRF-BP/CRF-R2 complex antagonists, dose response, cell-based, uHTS hits, 384-well (AID 651639); format: functional, Homo sapiens; conditions: read-out: IC50_Mean
cells = format: functional
Estrogen receptor beta = Estrogen receptor beta (Homo sapiens, UniProt Q92731);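 note: recombinant ER-beta bound to coactivator SRC1 peptide in presence of estradiol agonist; inhibitors block coactivator peptide binding and lower the FRET signal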
Estrogen receptor beta, sequence (Q92731 whole entry): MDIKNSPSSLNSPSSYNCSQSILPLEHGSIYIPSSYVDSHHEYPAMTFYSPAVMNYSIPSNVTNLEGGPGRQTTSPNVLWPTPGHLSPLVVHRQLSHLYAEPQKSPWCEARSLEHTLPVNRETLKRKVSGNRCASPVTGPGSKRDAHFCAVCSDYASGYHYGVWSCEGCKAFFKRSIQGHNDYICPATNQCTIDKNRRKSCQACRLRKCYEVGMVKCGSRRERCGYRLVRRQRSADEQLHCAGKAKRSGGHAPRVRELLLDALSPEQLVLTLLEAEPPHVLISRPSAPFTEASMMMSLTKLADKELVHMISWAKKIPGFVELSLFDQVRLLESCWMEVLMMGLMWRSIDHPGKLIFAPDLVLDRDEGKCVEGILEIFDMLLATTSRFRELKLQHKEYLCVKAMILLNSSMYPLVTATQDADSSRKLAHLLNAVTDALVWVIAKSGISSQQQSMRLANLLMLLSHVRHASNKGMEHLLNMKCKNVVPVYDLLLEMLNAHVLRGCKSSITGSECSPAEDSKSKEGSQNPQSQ

[13] = target: T3, Heat shock factor protein 1 (Mus musculus, UniProt P38532); experiment: HSF1 potentiators in luciferase reporter cells, confirmation, cell-based, NIH3T3, luminescence, dose retest (AID 435004); format: functional;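 note: stress induced by proteasome inhibitor MG132 added 30 min after compound; luciferase reporter driven by HSF1 response element in NIH3T3 cells; actives raise luminescence as potentiators of the MG132 stress response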
T3 sequence (P38532 whole entry): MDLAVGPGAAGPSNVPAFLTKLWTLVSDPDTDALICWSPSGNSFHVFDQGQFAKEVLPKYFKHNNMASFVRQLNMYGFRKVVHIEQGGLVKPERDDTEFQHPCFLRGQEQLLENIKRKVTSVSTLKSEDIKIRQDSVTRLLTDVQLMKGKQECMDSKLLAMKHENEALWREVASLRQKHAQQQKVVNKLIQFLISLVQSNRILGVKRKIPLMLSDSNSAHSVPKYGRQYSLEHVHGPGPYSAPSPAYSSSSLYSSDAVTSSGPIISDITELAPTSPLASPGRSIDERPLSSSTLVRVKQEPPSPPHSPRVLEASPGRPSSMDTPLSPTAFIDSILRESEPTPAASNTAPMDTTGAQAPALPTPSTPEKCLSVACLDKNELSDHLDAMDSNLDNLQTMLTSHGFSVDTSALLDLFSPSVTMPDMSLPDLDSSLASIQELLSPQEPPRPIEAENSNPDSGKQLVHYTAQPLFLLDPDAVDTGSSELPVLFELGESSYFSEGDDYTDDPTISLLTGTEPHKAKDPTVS

[14] = target: Induced myeloid leukemia cell differentiation protein Mcl-1 (Homo sapiens, UniProt Q07820); format: functional
Induced myeloid leukemia cell differentiation protein Mcl-1, sequence (Q07820 whole entry): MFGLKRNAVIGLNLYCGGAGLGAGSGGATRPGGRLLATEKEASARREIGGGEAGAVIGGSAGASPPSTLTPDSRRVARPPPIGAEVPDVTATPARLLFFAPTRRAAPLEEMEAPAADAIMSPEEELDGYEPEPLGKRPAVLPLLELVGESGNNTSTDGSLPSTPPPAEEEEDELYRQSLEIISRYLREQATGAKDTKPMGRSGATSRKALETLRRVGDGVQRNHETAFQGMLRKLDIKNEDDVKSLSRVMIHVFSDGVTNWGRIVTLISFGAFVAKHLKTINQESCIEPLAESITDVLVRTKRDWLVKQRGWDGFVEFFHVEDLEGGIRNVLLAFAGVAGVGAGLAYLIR

P388/ADR = experiment: cells; format: functional; conditions: Mus musculus
SN12K1 = experiment: cells; format: functional; conditions: Homo sapiens
P388 = experiment: cells; format: functional; conditions: Mus musculus
Paired box protein Pax-8 = Paired box protein Pax-8 (Homo sapiens, UniProt Q06710); experiment: inhibitors of PAX8-driven TPO luciferase reporter, dose response, RMG-I cells, cherry-pick (AID 687027); format: functional, cell-based;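 note: luciferase reporter driven by Pax8 target thyroperoxidase promoter measured by SteadyGlo luminescence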
Paired box protein Pax-8, sequence (Q06710 whole entry): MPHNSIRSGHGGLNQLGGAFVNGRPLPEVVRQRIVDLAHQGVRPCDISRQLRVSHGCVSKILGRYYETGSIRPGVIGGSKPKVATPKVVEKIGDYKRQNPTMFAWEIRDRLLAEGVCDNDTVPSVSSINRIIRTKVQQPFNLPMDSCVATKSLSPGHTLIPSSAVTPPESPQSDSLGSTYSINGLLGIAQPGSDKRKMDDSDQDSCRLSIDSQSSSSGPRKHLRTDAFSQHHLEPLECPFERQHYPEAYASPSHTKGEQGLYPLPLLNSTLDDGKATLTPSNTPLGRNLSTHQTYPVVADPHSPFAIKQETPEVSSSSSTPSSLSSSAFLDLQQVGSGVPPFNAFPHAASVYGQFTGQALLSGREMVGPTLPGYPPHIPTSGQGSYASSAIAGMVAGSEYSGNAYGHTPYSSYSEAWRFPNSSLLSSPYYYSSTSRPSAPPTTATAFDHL

[15] = intracellular Trypanosoma cruzi inhibitors in host cells – cell-based, plate reader, cherry-pick samples, set 3, dose response (AID 651818); format: functional;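 note: compounds incubated with infected cells for about four days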
Protein skinhead-1 = target: T4, Protein skinhead-1 (Caenorhabditis elegans, UniProt P34707); format: functional
T4 sequence (P34707 whole entry): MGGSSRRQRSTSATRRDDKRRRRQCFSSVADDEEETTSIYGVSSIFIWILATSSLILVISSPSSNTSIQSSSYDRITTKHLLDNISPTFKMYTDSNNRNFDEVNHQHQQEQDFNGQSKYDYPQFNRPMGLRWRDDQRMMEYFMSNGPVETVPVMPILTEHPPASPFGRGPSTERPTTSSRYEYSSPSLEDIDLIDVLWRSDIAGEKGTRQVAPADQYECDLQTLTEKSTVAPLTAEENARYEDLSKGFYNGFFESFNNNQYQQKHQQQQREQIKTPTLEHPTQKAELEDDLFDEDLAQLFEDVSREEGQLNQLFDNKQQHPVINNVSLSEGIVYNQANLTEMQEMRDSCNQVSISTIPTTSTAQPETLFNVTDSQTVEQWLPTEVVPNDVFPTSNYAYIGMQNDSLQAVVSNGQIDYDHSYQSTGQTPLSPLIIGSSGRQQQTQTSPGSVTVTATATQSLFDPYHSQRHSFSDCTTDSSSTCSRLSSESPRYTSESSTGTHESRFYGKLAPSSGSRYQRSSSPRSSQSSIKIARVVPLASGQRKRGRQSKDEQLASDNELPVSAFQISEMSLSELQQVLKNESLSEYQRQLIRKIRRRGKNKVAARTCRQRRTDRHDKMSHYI

[16] = P. falciparum 3D7-ScDHODH growth inhibitors, dose response, SYBR Green, dry powder samples (AID 1159570); format: functional, cell-based;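 note: parasite growth measured after 72 hours of compound exposure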
[17] = P. falciparum Dd2 growth inhibitors, dose response, SYBR Green, cherry-picked samples (AID 1159567); format: functional, cell-based
[18] = P. falciparum Dd2 growth inhibitors, dose response, SYBR Green, dry powder samples (AID 1159566); format: functional, cell-based;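 note: potency for growth inhibition with lower SYBR green DNA signal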
[19] = P. falciparum ATP4 D1247Y mutant growth inhibitors, dose response, NITD609-resistant line, SYBR Green, dry powder (AID 1159571); format: functional, cell-based;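 note: parasites synchronized at ring stage by sorbitol before testing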

DNA dC->dU-editing enzyme APOBEC-3G, sequence (Q9HC16 whole entry): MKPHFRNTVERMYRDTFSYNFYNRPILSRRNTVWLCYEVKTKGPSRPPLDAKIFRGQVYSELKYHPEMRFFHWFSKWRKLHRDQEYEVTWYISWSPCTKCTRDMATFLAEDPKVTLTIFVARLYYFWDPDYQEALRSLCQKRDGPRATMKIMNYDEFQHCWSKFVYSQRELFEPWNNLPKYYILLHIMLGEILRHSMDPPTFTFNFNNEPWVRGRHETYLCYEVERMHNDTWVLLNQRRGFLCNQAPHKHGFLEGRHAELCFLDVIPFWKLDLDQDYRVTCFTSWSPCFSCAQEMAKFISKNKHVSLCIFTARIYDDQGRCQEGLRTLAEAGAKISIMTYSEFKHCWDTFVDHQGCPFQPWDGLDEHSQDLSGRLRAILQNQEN

## O=[N+]([O-])c1ccc(N2CCN(C(=S)c3cccc([N+](=O)[O-])c3)CC2)cc1
[1]
  IC50: 47.7 µM (active)

## CSc1ccc(CN(C)C(=O)c2cccc(S(=O)(=O)N3CCN(Cc4ccccc4)CC3)c2)cc1
[2]
  AC50: 2.89 µM (active)
[3]
  AC50: 64.6 µM (active)
[4]
  AC50: 14.3 µM (active)
[5]
  AC50: 10.3 µM (active)
[6]
  AC50: 10.3 µM (active)
[7]
  AC50: 8.39 µM (active)

## COc1ccc(S(=O)(=O)Nc2ccc3ccccc3c2)cc1
[8]
  IC50: > 100 µM (not active)
[9]
  IC50: > 100 µM (inactive)

## O=C(Oc1c(Br)cc([N+](=O)[O-])cc1Br)c1cccnc1
[10]
  IC50: 9.69 µM (active)
[11]
  EC50: > 53 µM (inactive)
[12]
  IC50: > 20 µM (inactive)

## Cn1c(COc2ccccc2)nnc1SCC(=O)c1cccc([N+](=O)[O-])c1
[10]
  IC50: 23.4 µM (active)
[11]
  EC50: > 53 µM (inactive)
[12]
  IC50: 7.77 µM (active)

## CCCCNC(=O)COC(=O)c1cc(F)c(F)cc1Cl
cells
  IC50: 8.58 µM (active)

## Cc1ccccc1Cn1ccc(NC(=O)c2cc3ncc(Br)cn3n2)n1
[10]
  IC50: < 0.368 µM (active)
[11]
  EC50: > 53 µM (inactive)
[12]
  IC50: 2.65 µM (active)

## O=C(CNC(=O)c1ccco1)OCc1ccc(Cl)cc1
Estrogen receptor beta
  IC50: > 50 µM (not active)

## CCn1cc(SCC(=O)NCc2ccc3c(c2)OCO3)c2ccccc21
Estrogen receptor beta
  IC50: > 50 µM (not active)

## NS(=O)(=O)c1ccc(CCNC2CC(=O)N(CCc3ccccc3)C2=O)cc1 (centres undefined)
Estrogen receptor beta
  IC50: > 50 µM (not active)

## Cc1ccc2cccc(Oc3ncnc4scc(-c5ccccc5)c34)c2n1
[10]
  IC50: 7.86 µM (active)
[11]
  EC50: > 53 µM (inactive)
[12]
  IC50: 9.74 µM (active)

## COc1ccc(C(=O)COC(=O)c2cccnc2SC)cc1
[13]
  EC50: > 260 µM (inactive)
[10]
  IC50: 1.85 µM (active)
[11]
  EC50: > 53 µM (inactive)
[12]
  IC50: 3.77 µM (active)

## O=C(CN1C(=O)/C(=C2\SC(=S)N(C3CCS(=O)(=O)C3)C2=O)c2ccccc21)Nc1ccccc1 (centres undefined)
[14]
  IC50: 5.8 µM (active)

## COc1ccc(Cc2nnc(S)n2C)cc1Br
[1]
  IC50: 18.9 µM (active)

## CCOC(=O)c1c(NC(=O)c2cc(-c3ccc(O)cc3)on2)sc(C(C)=O)c1C
[14]
  IC50: 3.69 µM (active)

## CC(C)CCCCCCCCCCCCC(=O)NCC(=O)NC1C(C)OC(Nc2[nH]cnc3ncnc2-3)C(O)C1O (centres undefined)
P388/ADR
  GI50: 10 nM (active)
SN12K1
  GI50: 0.01 µM (active)
P388
  GI50: 0.01 µM (active)
Paired box protein Pax-8
  AC50: < 0.26 µM (active)

## N#Cc1ccc(CN(Nc2ccccc2)c2ccccc2)cc1
[10]
  IC50: 14.3 µM (active)
[11]
  EC50: > 53 µM (inactive)
[12]
  IC50: 10 µM (active)

## C[C@H](CO)N1C[C@H](C)[C@H](CN(C)Cc2ccc(C(=O)Nc3ccccc3N)cc2)Oc2ccc(NC(=O)C3CC3)cc2CC1=O
[15]
  AC50: 2.66 µM (active)

## Cc1ccc(S(=O)(=O)N(C)C[C@H]2Oc3c(NC(=O)c4nc5ccccc5s4)cccc3C(=O)N([C@H](C)CO)C[C@@H]2C)cc1
[15]
  AC50: 0.839 µM (active)

## COc1ccc(NC(=O)Nc2cccc3c2O[C@@H](CN(C)Cc2ccc(C(=O)O)cc2)[C@@H](C)CN([C@@H](C)CO)C3=O)cc1
[15]
  AC50: 20 µM (inactive)

## C[C@@H]1CN([C@H](C)CO)C(=O)Cc2cc(NC(=O)Nc3ccc(C(F)(F)F)cc3)ccc2O[C@@H]1CN(C)S(=O)(=O)c1ccccc1
[15]
  AC50: 4.23 µM (active)

## C[C@@H]1CCCCO[C@@H](CN(C)Cc2ccc(Cl)c(Cl)c2)[C@@H](C)CN([C@H](C)CO)C(=O)c2cc(NS(=O)(=O)c3ccccc3)ccc2O1
[15]
  AC50: 5.37 µM (active)

## CSC1SCC2C(=O)N(C)C(C(C)C)C(=O)OCC(NC(=O)c3cnc4ccccc4n3)C(=O)NC(C)C(=O)N(C)C1C(=O)N(C)C(C(C)C)C(=O)OCC(NC(=O)c1cnc3ccccc3n1)C(=O)NC(C)C(=O)N2C (centres undefined)
[2]
  AC50: < 0.26 µM (active)
P388/ADR
  GI50: 0.0955 nM (active)
[4]
  AC50: < 0.26 µM (active)
SN12K1
  GI50: 0.0075 µM (active)
P388
  GI50: 0.0075 µM (active)
Protein skinhead-1
  IC50: 81.5 µM (inactive)

## COc1ccccc1S(=O)(=O)N(C)C[C@@H]1OCc2ccccc2-c2c(n(C)c3ccccc23)C(=O)N([C@@H](C)CO)C[C@@H]1C
[16]
  AC50: 0.507 µM (active)
[17]
  AC50: 2.19 µM (active)
[18]
  AC50: 0.445 µM (active)
[19]
  AC50: 0.44 µM (active)
